{
  "source": "patent US20170157212A1",
  "about": "“CDK MODULATORS AND METHODS FOR THE TREATMENT OF CANCER” (Salk Institute for Biological Studies, priority 2015, published 2017)",
  "biological_target": "T1, affinity-purified CDK12 kinase complex (Homo sapiens, UniProt Q9NYV4)",
  "T1 construct": "made in house",
  "T1 sequence (Q9NYV4 whole entry)": "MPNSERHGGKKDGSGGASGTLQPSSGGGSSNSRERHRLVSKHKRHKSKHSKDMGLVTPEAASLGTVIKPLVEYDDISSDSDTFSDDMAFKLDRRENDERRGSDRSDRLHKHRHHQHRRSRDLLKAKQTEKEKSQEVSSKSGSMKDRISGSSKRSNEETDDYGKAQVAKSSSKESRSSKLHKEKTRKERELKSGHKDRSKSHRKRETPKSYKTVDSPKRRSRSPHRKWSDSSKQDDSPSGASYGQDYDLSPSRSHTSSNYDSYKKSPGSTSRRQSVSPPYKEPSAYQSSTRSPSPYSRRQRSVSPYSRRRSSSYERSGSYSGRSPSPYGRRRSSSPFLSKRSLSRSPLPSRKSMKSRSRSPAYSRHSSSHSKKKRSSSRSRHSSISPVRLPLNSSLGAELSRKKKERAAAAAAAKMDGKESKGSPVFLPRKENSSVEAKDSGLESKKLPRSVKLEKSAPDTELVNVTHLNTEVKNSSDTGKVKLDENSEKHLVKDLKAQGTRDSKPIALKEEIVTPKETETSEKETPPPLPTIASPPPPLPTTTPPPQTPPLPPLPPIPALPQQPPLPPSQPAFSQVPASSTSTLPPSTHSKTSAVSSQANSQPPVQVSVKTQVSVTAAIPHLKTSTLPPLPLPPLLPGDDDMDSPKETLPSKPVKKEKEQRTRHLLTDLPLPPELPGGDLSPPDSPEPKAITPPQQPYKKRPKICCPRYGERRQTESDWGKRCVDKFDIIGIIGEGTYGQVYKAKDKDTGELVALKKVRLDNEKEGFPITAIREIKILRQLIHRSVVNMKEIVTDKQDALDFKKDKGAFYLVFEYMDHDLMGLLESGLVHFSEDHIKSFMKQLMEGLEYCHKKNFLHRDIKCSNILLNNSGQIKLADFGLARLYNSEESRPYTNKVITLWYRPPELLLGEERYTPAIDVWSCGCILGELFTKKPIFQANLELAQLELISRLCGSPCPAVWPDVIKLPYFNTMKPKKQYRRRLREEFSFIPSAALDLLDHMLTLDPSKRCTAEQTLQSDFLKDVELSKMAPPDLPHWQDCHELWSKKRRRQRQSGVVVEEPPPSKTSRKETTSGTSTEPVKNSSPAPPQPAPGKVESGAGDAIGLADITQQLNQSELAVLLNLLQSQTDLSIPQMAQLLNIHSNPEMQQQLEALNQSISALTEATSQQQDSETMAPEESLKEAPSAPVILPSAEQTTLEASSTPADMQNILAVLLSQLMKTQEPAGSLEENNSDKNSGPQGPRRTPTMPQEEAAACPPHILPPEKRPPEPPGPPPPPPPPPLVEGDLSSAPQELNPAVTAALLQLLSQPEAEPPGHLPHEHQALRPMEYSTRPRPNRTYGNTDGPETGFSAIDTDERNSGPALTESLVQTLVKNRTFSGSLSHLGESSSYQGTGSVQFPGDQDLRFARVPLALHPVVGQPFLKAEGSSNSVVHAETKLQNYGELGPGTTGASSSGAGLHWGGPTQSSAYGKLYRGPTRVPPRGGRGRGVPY",
  "T1 sequence (O75909 whole entry partner)": "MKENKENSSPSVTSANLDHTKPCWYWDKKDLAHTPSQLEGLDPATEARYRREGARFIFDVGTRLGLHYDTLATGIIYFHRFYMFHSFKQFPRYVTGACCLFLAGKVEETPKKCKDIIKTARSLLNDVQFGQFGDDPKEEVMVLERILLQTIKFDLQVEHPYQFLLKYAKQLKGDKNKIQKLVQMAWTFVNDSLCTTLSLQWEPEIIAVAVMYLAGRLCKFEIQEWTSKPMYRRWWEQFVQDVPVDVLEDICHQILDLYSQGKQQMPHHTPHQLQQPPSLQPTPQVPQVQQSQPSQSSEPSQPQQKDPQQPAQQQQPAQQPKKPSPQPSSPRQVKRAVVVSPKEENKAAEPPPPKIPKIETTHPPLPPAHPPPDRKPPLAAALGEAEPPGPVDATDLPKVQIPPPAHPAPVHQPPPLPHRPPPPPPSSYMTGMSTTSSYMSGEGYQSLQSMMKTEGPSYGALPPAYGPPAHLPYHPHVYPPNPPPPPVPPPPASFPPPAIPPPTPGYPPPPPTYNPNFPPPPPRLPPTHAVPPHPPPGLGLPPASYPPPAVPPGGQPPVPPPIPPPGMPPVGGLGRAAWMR",
  "assay": "In vitro kinase assay: CDK12 phosphorylation of RNAPII GST-CTD",
  "type": "biochemical",
  "details": "human GST-CTD (52 repeat), increasing levels of recombinant CRIF1, immunoblot, dose-dependent",
  "text": "(A) CRIF1 and CDK12 have opposite effects on global RNAPII CTD-Ser2P levels in vivo. U2OS cells were transfected with indicated siRNAs for 48 hr, and RNAPII phosphorylation was monitored by immunoblot using phospho-specific CTD (Ser2P and Ser5P) antibodies. (B) Knockdown of CRIF1 up-regulates CHK1 expression and induction of p53. […] (C) Analysis of steady-state mRNA levels by qRT-PCR in extracts from U2OS cells exposed to control (CTL) or CRIF1-specific siRNAs, as indicated. (D) Depletion of CRIF1 enhances 4E-BP1 phosphorylation at S65 and T70 in vivo, as assessed by immunoblot using phospho-specific antibodies. (E) CRIF1 inhibits RNAPII CTD-Ser2 phosphorylation by CDK12 complexes in vitro. The human GST-CTD (52 repeat) protein was incubated in vitro with the affinity-purified HA-CDK12 kinase complex in the absence or presence of increasing levels of purified recombinant CRIF1, and analyzed by immunoblot with the indicated antisera. […] Analysis of GST-CTD Ser2 phosphorylation was carried out as described in (E), using the affinity-purified FLAG-CDK9 kinase. (G) CRIF1 inhibits 4E-BP1 phosphorylation by CDK12 in vitro. […] was monitored by immunoblot in the absence or in the presence of different levels of affinity-purified recombinant CRIF1. […]",
  "data": [
    {"substance": "Growth Arrest and DNA Damage-Inducible Proteins-Interacting Protein 1 [CRIF1]", "values": [
      {"measurement": "CDK12-mediated phosphorylation of the human GST-CTD substrate (RNAPII CTD-Ser2)", "result": "inhibits"},
      {"measurement": "CDK12-mediated phosphorylation of the human GST-CTD substrate (RNAPII CTD-Ser2)", "setting": "listed as recombinant CRIF1", "result": "potently inhibited"}
    ]}
  ]
}
